Assay: log P by HPLC
Assay type: physicochemical
Details: EEC directive 79/831 Annex V. A8 by HPLC (gradient method, acetonitrile/0.1% aqueous phosphoric acid)

logP | SMILES
4.16 | Cc1nc2nc(Cl)c(-c3ccc(F)cc3F)c(N3CC(C)CC(C)C3)n2n1 (stereo not drawn) [compound 451]
3.56 | CCN(Cc1ccco1)c1c(-c2ccccc2Cl)c(Cl)nc2nc(C)nn12 [compound 404]
3.52 | Cc1nc2nc(Cl)c(-c3c(F)cccc3F)c(NC3CCCCC3C(F)(F)F)n2n1 (stereo not drawn) [compound 425]
3.76 | CCC(C)Nc1c(-c2ccccc2Cl)c(Cl)nc2nc(C3CC3)nn12 (stereo not drawn) [compound 494]
2.85 | C=CC(C)Nc1c(-c2c(F)cc(F)cc2F)c(Cl)nc2nc(C)nn12 (stereo not drawn) [compound 417]
3.1 | Cc1nc2nc(Cl)c(-c3ccccc3Cl)c(NC(C)C(F)(F)F)n2n1 (stereo not drawn) [compound 437]
4.01 | Cc1nc2nc(Cl)c(-c3ccc(F)cc3F)c(N3CCC(C)(C)CC3)n2n1 [compound 288]
2.3 | Cc1nc2nc(Cl)c(-c3ccc(F)cc3F)c(N3CCOCC3)n2n1 [compound 296]
3.35 | Cc1nc2nc(Cl)c(-c3c(F)cc(F)cc3F)c(NC(C)C(C)C)n2n1 (stereo not drawn) [compound 506]
3.24 | Cc1nc2nc(Cl)c(-c3ccc(F)cc3F)c(NC3CCCC3)n2n1 [compound 405]
2.89 | Cc1cccc(Nc2c(-c3c(F)cccc3F)c(Cl)nc3nc(C)nn23)c1 [compound 326]
3.6 | Cc1ccc(Nc2c(-c3ccc(F)cc3F)c(Cl)nc3nc(C4CC4)nn23)cc1 [compound 521]
3.64 | CCN(CCOC)c1c(-c2c(F)cc(F)cc2F)c(Cl)nc2nc(C3CC3)nn12 [compound 470]
2.41 | Cc1nc2nc(Cl)c(-c3ccccc3F)c(NC3CC3)n2n1 [compound 390]
3.82 | CCCCN(CC)c1c(-c2c(F)cccc2F)c(Cl)nc2nc(C)nn12 [compound 344]
2.63 | Cc1nc2nc(Cl)c(-c3ccccc3F)c(NC(C)C)n2n1 [compound 386]
3.29 | CCN(CC1CCCO1)c1c(-c2c(F)cccc2Cl)c(Cl)nc2nc(C)nn12 (stereo not drawn) [compound 268]
2.85 | CCOC(=O)CN(CC)c1c(-c2c(F)cccc2F)c(Cl)nc2nc(C)nn12 [compound 343]
2.31 | CCNc1c(-c2c(F)cccc2F)c(Cl)nc2nc(C)nn12 [compound 419]
3.26 | C=CCN(C)c1c(-c2c(F)cccc2Cl)c(Cl)nc2nc(C)nn12 [compound 273]
2.45 | COCCN(C)c1c(-c2c(F)cccc2F)c(Cl)nc2nc(C)nn12 [compound 336]

Same assay, conditions: HPLC, gradient method, acetonitrile/0.1% aqueous phosphoric acid; EEC directive 79/831 Annex V. A8

logP | SMILES
3.56 | Fc1cc(F)c(-c2c(Cl)nc3nc(C4CC4)nn3c2N2CC=CCO2)c(F)c1 [compound 786]
5.18 | CC1CC(C)CN(c2c(-c3ccc(F)cc3F)c(Cl)nc3nc(C(F)(F)F)nn23)C1 (stereo not drawn) [compound 797]
3.27 | Fc1ccc(Nc2c(-c3ccc(F)cc3F)c(Cl)nc3nc(C4CC4)nn23)cc1 [compound 738]
3.28 | Cc1nc2nc(Cl)c(-c3c(F)cccc3F)c(NC3CCCCC3)n2n1 [compound 186]
4.52 | CCCCN(CC)c1c(-c2ccc(F)cc2F)c(Cl)nc2nc(C3CC3)nn12 [compound 596]
2.77 | C#CCN(C)c1c(-c2c(F)cc(F)cc2F)c(Cl)nc2nc(C)nn12 [compound 149]
2.27 | CCc1nc2nc(Cl)c(-c3c(F)cc(F)cc3F)c(NCC#N)n2n1 [compound 23]
3.35 | Cc1nc2nc(Cl)c(-c3ccc(Cl)cc3Cl)c(N3CCCCN3)n2n1 [compound 784]
3.25 | Fc1cccc(F)c1-c1c(Cl)nc2nc(C3CC3)nn2c1N1CCCC1 [compound 679]
3.68 | CCCN(CC1CCCO1)c1c(-c2c(F)cc(F)cc2F)c(Cl)nc2nc(C)nn12 (stereo not drawn) [compound 163]
3.47 | COC(=O)C(COC(C)(C)C)Nc1c(-c2c(F)cc(F)cc2F)c(Cl)nc2nc(C)nn12 (stereo not drawn) [compound 120]
4.72 | CC1CCCCN1c1c(-c2ccc(F)cc2Cl)c(Cl)nc2nc(C3CC3)nn12 (stereo not drawn) [compound 617]
0.75 | Cc1nc2nc(Cl)c(-c3ccccc3Cl)c(N3CCCC3)n2n1 [compound 227]
4.43 | Fc1ccc(-c2c(Cl)nc3nc(C(F)(F)F)nn3c2N2CCC(C(F)(F)F)CC2)c(F)c1 [compound 805]
4.77 | CCCN(CC1CCCO1)c1c(-c2ccc(F)cc2F)c(Cl)nc2nc(C(F)(F)F)nn12 (stereo not drawn) [compound 552]
3.06 | CN(C)c1c(-c2ccc(F)cc2F)c(Cl)nc2nc(C3CC3)nn12 [compound 722]
3.17 | Cc1nc2nc(Cl)c(-c3ccc(F)cc3Cl)c(N[C@@H](C)C(F)(F)F)n2n1 (single isomer, unassigned) [compound 642]
4.23 | CC(C)C(C)Nc1c(-c2ccc(F)cc2Cl)c(Cl)nc2nc(C3CC3)nn12 (racemic) [compound 775]
4.31 | Fc1ccc(-c2c(Cl)nc3nc(C4CC4)nn3c2NC2CC(C(F)(F)F)CC(C(F)(F)F)C2)c(F)c1 (stereo not drawn) [compound 716]
3.24 | COC(CN(C)c1c(-c2ccc(F)cc2F)c(Cl)nc2nc(C3CC3)nn12)OC [compound 666]

logP | SMILES
3.26 | CCCN(CCOC)c1c(-c2ccc(F)cc2F)c(Cl)nc2nc(C)nn12 [compound 209]
4.55 | CC1=CCCN(c2c(-c3ccc(F)cc3F)c(Cl)nc3nc(C(F)(F)F)nn23)C1 [compound 802]
2.69 | Cc1nc2nc(Cl)c(-c3ccc(F)cc3F)c(NC(C)C)n2n1 [compound 196]
3.07 | CC(=O)C1CCN(c2c(-c3ccc(F)cc3F)c(Cl)nc3nc(C4CC4)nn23)CC1 [compound 730]
3.31 | Cc1nc2nc(Cl)c(-c3ccc(F)c(Cl)c3)c(N(N)CC(C)C)n2n1 [compound 131]
4.34 | CC1CCN(c2c(-c3c(F)cccc3F)c(Cl)nc3nc(C4CC4)nn23)CC1 [compound 681]
3.39 | CC(C)Nc1c(-c2ccccc2Cl)c(Cl)nc2nc(C3CC3)nn12 [compound 17]
3.78 | Clc1ccccc1-c1c(Cl)nc2nc(C3CC3)nn2c1NCC1CC1(Cl)Cl (stereo not drawn) [compound 745]
3.12 | Cc1nc2nc(Cl)c(-c3c(F)cccc3Cl)c(N(N)CC(C)C)n2n1 [compound 130]
4.35 | Fc1ccc(-c2c(Cl)nc3nc(C(F)(F)F)nn3c2N2CCc3ccccc3C2)c(F)c1 [compound 815]
3.68 | CC1CCCN1c1c(-c2c(F)cccc2F)c(Cl)nc2nc(C3CC3)nn12 (stereo not drawn) [compound 678]
3.67 | Cc1nc2nc(Cl)c(-c3ccc(Cl)cc3Cl)c(N3CCCCO3)n2n1 [compound 817]
2.56 | C=C(C)CNc1c(-c2c(F)cccc2F)c(Cl)nc2nc(C)nn12 [compound 183]
4.04 | CCN(CCOC)c1c(-c2c(F)cc(F)cc2F)c(Cl)nc2nc(C(F)(F)F)nn12 [compound 31]
3.1 | Cc1nc2nc(Cl)c(-c3ccccc3Cl)c(NCC(C)C)n2n1 [compound 210]
3.14 | Cc1nc2nc(Cl)c(-c3c(F)cc(F)cc3F)c(NCC(C)C)n2n1 [compound 145]
3.65 | C#CCN(C)c1c(-c2ccc(F)cc2F)c(Cl)nc2nc(C(F)(F)F)nn12 [compound 539]
3.38 | COC(=O)C1CCN(c2c(-c3ccc(F)cc3F)c(Cl)nc3nc(C4CC4)nn23)CC1 [compound 731]
3.07 | CCN(CCC#N)c1c(-c2ccc(F)cc2F)c(Cl)nc2nc(C3CC3)nn12 [compound 725]
